Data reported in patent US20260042731A1, “(2,4-DICHLOROPHENOXY)ACETIC ACID ANALOGS” (CORTEVA AGRISCIENCE LLC, priority 2022, published 2026).
Read-outs that look alike come from different tables or passages of the source.

Legend:
[1] = system: weeds ABUTH, AMATA, AMBEL, CHEAL, ERICA; experiment: Postemergence herbicide evaluation, overall average % weed control (ABUTH, AMATA, AMBEL, CHEAL, ERICA); type: in vivo; conditions: post-emergence, read-out: Overall Ave % Weed Control; for pest or weed control at 280 g/ha: 280 g ae/ha; for pest or weed control at 560 g/ha: 560 g ae/ha
[2] = system: glyphosate resistant Conyza canadensis (L.) (ERICA), horseweed; experiment: Postemergence herbicide evaluation, growth of Conyza canadensis (ERICA); type: in vivo; conditions: Erigeron canadensis, post-emergence; for pest or weed control at 280 g/ha: 280 g ae/ha; for pest or weed control at 560 g/ha: 560 g ae/ha
[3] = system: weeds (ABUTH, AMATA, AMBEL, CHEAL, ERICA); experiment: Postemergence herbicide evaluation, overall average % weed control across ABUTH, AMATA, AMBEL, CHEAL, ERICA; type: in vivo; conditions: post-emergence, average over the five weeds, read-out: Overall Ave % Weed Control; for pest or weed control at 280 g/ha: 280 g ae/ha; for pest or weed control at 560 g/ha: 560 g ae/ha
[4] = system: Abutilon theophrasti (ABUTH), velvetleaf; experiment: Postemergence herbicide evaluation, growth of Abutilon theophrasti (ABUTH); type: in vivo; conditions: for pest or weed control at 280 g/ha / pest or weed control at 560 g/ha: Abutilon theophrasti, post-emergence; for pest or weed control at 280 g/ha / AVE. ABUTH, percent reduction in plant size relative to the untreated control: 280 g ae/ha; for pest or weed control at 560 g/ha: 560 g ae/ha
[5] = Volatility of compounds measured by thermogravimetric analysis (TGA); type: physicochemical
[6] = system: Ambrosia artemisiifolia (AMBEL), common ragweed; experiment: Postemergence herbicide evaluation, growth of Ambrosia artemisiifolia (AMBEL); type: in vivo; conditions: Ambrosia artemisiifolia, post-emergence; for pest or weed control at 280 g/ha: 280 g ae/ha; for pest or weed control at 560 g/ha: 560 g ae/ha
[7] = system: Amaranthus rudis (AMATA), tall water hemp; experiment: Postemergence herbicide evaluation, growth of Amaranthus rudis (AMATA); type: in vivo; conditions: for pest or weed control at 280 g/ha / pest or weed control at 560 g/ha: Amaranthus tuberculatus, post-emergence
[8] = system: Chenopodium album (CHEAL), common lambsquarters; experiment: Postemergence herbicide evaluation, growth of Chenopodium album (CHEAL); type: in vivo; conditions: Chenopodium album, post-emergence; for pest or weed control at 280 g/ha: 280 g ae/ha; for pest or weed control at 560 g/ha: 560 g ae/ha
[9] = 168 h, 7 DAA, read-out: Ave. ERICA, percent reduction in plant size relative to the untreated control
[10] = 336 h, 14 DAA, percent reduction in plant size relative to untreated control, read-out: Ave. ERICA
[11] = 504 h, 21 DAA, percent reduction in plant size relative to untreated control, read-out: Ave. ERICA
[12] = 168 h, 7 DAA, read-out: AVE. ABUTH, percent reduction in plant size relative to the untreated control
[13] = 336 h, 14 DAA, percent reduction in plant size relative to untreated control, read-out: AVE. ABUTH
[14] = 504 h, 21 DAA, percent reduction in plant size relative to untreated control, read-out: AVE. ABUTH
[15] = 168 h, 7 DAA, read-out: AVE. AMBEL, percent reduction in plant size relative to the untreated control
[16] = 336 h, 14 DAA, percent reduction in plant size relative to untreated control, read-out: AVE. AMBEL
[17] = 504 h, 21 DAA, percent reduction in plant size relative to untreated control, read-out: AVE. AMBEL
[18] = 168 h, 280 g ae/ha, 7 DAA, read-out: Ave. AMATA, percent reduction in plant size relative to the untreated control
[19] = 168 h, 7 DAA, read-out: Ave. CHEAL, percent reduction in plant size relative to the untreated control
[20] = 336 h, 14 DAA, percent reduction in plant size relative to untreated control, read-out: Ave. CHEAL
[21] = 504 h, 21 DAA, percent reduction in plant size relative to untreated control, read-out: Ave. CHEAL
[22] = 336 h, 14 DAA, read-out: Ave. ERICA, percent reduction in plant size relative to the untreated control
[23] = 504 h, 21 DAA, read-out: Ave. ERICA, percent reduction in plant size relative to the untreated control
[24] = 504 h, 21 DAA, read-out: AVE. ABUTH, percent reduction in plant size relative to the untreated control
[25] = 336 h, 14 DAA, read-out: AVE. AMBEL, percent reduction in plant size relative to the untreated control
[26] = 504 h, 21 DAA, read-out: AVE. AMBEL, percent reduction in plant size relative to the untreated control
[27] = 336 h, 14 DAA, read-out: Ave. CHEAL, percent reduction in plant size relative to the untreated control
[28] = 504 h, 21 DAA, read-out: Ave. CHEAL, percent reduction in plant size relative to the untreated control

SMILES: N/C(=N\OC(=O)COc1ccc(Cl)cc1Cl)c1ccco1 [Compound A5]
- pest or weed control at 280 g/ha ([1]; 168 h, 7 DAA): 60%
- pest or weed control at 560 g/ha ([1]; 168 h, 7 DAA): 61%
- pest or weed control at 280 g/ha [2, 9]: 70%
- pest or weed control at 560 g/ha [2, 9]: 73%
- pest or weed control at 280 g/ha [2, 10]: 83%
- pest or weed control at 560 g/ha [2, 10]: 85%
- pest or weed control at 280 g/ha [2, 11]: 88%
- pest or weed control at 560 g/ha [2, 11]: 88%
- pest or weed control at 280 g/ha ([3]; 336 h, 14 DAA): 68%
- pest or weed control at 560 g/ha ([3]; 336 h, 14 DAA): 71%
- pest or weed control at 280 g/ha ([3]; 504 h, 21 DAA): 67%
- pest or weed control at 560 g/ha ([3]; 504 h, 21 DAA): 72%
- pest or weed control at 280 g/ha [4, 12]: 38%
- pest or weed control at 560 g/ha [4, 12]: 43%
- pest or weed control at 280 g/ha [4, 13]: 40%
- pest or weed control at 560 g/ha [4, 13]: 53%
- pest or weed control at 280 g/ha [4, 14]: 30%
- pest or weed control at 560 g/ha [4, 14]: 50%
- TGA Data (rate of weight loss, volatility) [5]: 1.2 µg/min
- pest or weed control at 280 g/ha [6, 15]: 60%
- pest or weed control at 560 g/ha [6, 15]: 60%
- pest or weed control at 280 g/ha [6, 16]: 78%
- pest or weed control at 560 g/ha [6, 16]: 85%
- pest or weed control at 280 g/ha [6, 17]: 78%
- pest or weed control at 560 g/ha [6, 17]: 85%
- pest or weed control at 280 g/ha [7, 18]: 70%
- pest or weed control at 560 g/ha ([7]; 168 h, 560 g ae/ha, 7 DAA, read-out: Ave. AMATA, percent reduction in plant size relative to the untreated control): 65%
- pest or weed control at 280 g/ha ([7]; 336 h, 280 g ae/ha, 14 DAA, percent reduction in plant size relative to untreated control, read-out: Ave. AMATA): 73%
- pest or weed control at 560 g/ha ([7]; 336 h, 560 g ae/ha, 14 DAA, percent reduction in plant size relative to untreated control, read-out: Ave. AMATA): 68%
- pest or weed control at 280 g/ha ([7]; 504 h, 280 g ae/ha, 21 DAA, percent reduction in plant size relative to untreated control, read-out: Ave. AMATA): 73%
- pest or weed control at 560 g/ha ([7]; 504 h, 560 g ae/ha, 21 DAA, percent reduction in plant size relative to untreated control, read-out: Ave. AMATA): 70%
- pest or weed control at 280 g/ha [8, 19]: 60%
- pest or weed control at 560 g/ha [8, 19]: 63%
- pest or weed control at 280 g/ha [8, 20]: 68%
- pest or weed control at 560 g/ha [8, 20]: 63%
- pest or weed control at 280 g/ha [8, 21]: 68%
- pest or weed control at 560 g/ha [8, 21]: 65%

SMILES: O=C(COc1ccc(Cl)cc1Cl)Oc1cncnc1 [Compound E14, Pyrimidin-5-yl 2-(2,4-dichlorophenoxy)acetate]
- pest or weed control at 280 g/ha ([1]; 168 h, 7 DAA): 78.3%
- pest or weed control at 560 g/ha ([1]; 168 h, 7 DAA): 81.2%
- pest or weed control at 280 g/ha ([1]; 336 h, 14 DAA): 86%
- pest or weed control at 560 g/ha ([1]; 336 h, 14 DAA): 92.7%
- pest or weed control at 280 g/ha ([1]; 504 h, 21 DAA): 96.2%
- pest or weed control at 560 g/ha ([1]; 504 h, 21 DAA): 99.2%
- pest or weed control at 280 g/ha [2, 9]: 75%
- pest or weed control at 560 g/ha [2, 9]: 85%
- pest or weed control at 280 g/ha [2, 22]: 92.5%
- pest or weed control at 560 g/ha [2, 22]: 98%
- pest or weed control at 280 g/ha [2, 23]: 96%
- pest or weed control at 560 g/ha [2, 23]: 99%
- AVE. ABUTH, percent reduction in plant size relative to the untreated control ([4]; 7 DAA): 65%
- AVE. ABUTH, percent reduction in plant size relative to the untreated control ([4]; 14 DAA): 65%
- pest or weed control at 560 g/ha [4, 12]: 67.5%
- pest or weed control at 560 g/ha ([4]; 336 h, 14 DAA, read-out: AVE. ABUTH, percent reduction in plant size relative to the untreated control): 77.5%
- pest or weed control at 280 g/ha [4, 24]: 97.5%
- pest or weed control at 560 g/ha [4, 24]: 97.5%
- TGA Data (rate of weight loss, volatility) [5]: 0.0575 µg/min
- pest or weed control at 280 g/ha [6, 15]: 82.5%
- pest or weed control at 560 g/ha [6, 15]: 77.5%
- pest or weed control at 280 g/ha [6, 25]: 92.5%
- pest or weed control at 560 g/ha [6, 25]: 98.5%
- pest or weed control at 280 g/ha [6, 26]: 100%
- pest or weed control at 560 g/ha [6, 26]: 99.5%
- Ave. AMATA, percent reduction in plant size relative to the untreated control ([7]; 280 g ae/ha, 21 DAA): 92.5%
- Ave. AMATA, percent reduction in plant size relative to the untreated control ([7]; 560 g ae/ha, 7 DAA): 98.5%
- pest or weed control at 280 g/ha [7, 18]: 89%
- pest or weed control at 280 g/ha ([7]; 336 h, 280 g ae/ha, 14 DAA, read-out: Ave. AMATA, percent reduction in plant size relative to the untreated control): 90%
- pest or weed control at 560 g/ha ([7]; 336 h, 560 g ae/ha, 14 DAA, read-out: Ave. AMATA, percent reduction in plant size relative to the untreated control): 97%
- pest or weed control at 560 g/ha ([7]; 504 h, 560 g ae/ha, 21 DAA, read-out: Ave. AMATA, percent reduction in plant size relative to the untreated control): 100%
- pest or weed control at 280 g/ha [8, 19]: 80%
- pest or weed control at 560 g/ha [8, 19]: 77.5%
- pest or weed control at 280 g/ha [8, 27]: 90%
- pest or weed control at 560 g/ha [8, 27]: 92.5%
- pest or weed control at 280 g/ha [8, 28]: 95%
- pest or weed control at 560 g/ha [8, 28]: 100%
